Structures are written as SMILES.

The subject of one test is DIPG007 cells. Kind of test: Survival assay (MTT), DIPG007. Type of test: cell-based, human. Conditions: Homo sapiens, DIPG007, Glioma, Grade IV, 72 hours. Here is the method: (§1) Cells were passed between 70 and 90% confluence.
(§2) Cells were incubated with the drugs for 72 hours.

The subject of a further test is G7 cells. Briefly: Survival assay (MTT), G7. Conditions: Homo sapiens, G7, Glioma, Grade IV, 72 hours. The class given is cell-based, human. The protocol: (§3) Primary glioma neural stem (GNS) cells (G7, G14, G144, G166) were cultured on poly-D-lysine (Merck Millipore, Cat. Nr. A-003-E) and laminin (R&D Systems, Cat.Nr. 3446-005-01) coated plates in neural stem cell medium (50% DMEM-F12 (Thermofisher, Cat. Nr. 21041025), 50% neurobasal medium (Thermofisher, Cat. Nr. 10888-022), N2 (Life Technologies, Cat. Nr. A-003-E) and B27 supplements (Life Technologies, Cat.Nr. 12587010), 1 mM sodium pyruvate (Life Technologies, Cat.Nr. 11360-039), 2 mM glutamax (Life Technologies, Cat. Nr. 35050038), 1 mM HEPES (Fisher Scientific, Cat. Nr. BP299-1), 0.1 mM β-mercaptoethanol (Life Technologies, Cat. Nr. 31350010), 1× nonessential amino acids (Life Technologies, Cat. Nr. 11140-035), 0.006% bovine serum albumin (Sigma, Cat. Nr. A8577-10ML), 4 μg/ml heparin (Sigma, Cat. Nr. H3149-25KU), 100 U/ml penicillin, 100 μg/ml streptomycin, 20 ng/ml hEGF (R&D Systems, Cat. Nr. 236-EG-200), 10 ng/ml bFGF (Peprotech, Cat. Nr. 100-18B).
as §2

A further test deals with U87-MG. Briefly: Glioblastoma Multiforme mouse xenograft model. Conditions: five doses; for tumour volume: over all time points. The class given is in vivo, mice. The protocol: Standard agent, Temozolomide, was provided by Oslo University Hospital in powder form and was formulated fresh prior to each dose by first adding appropriate volume of DMSO to pre-weighed compound, then adding appropriate volumes of Solutol (RTM) and PBS (5% DMSO/5% Solutol (RTM)/90% PBS). […] Standard agent, Temozolomide, was administered at a dose volume of 10 mL/kg.
The human brain malignant glioma cell line, U87-MG (ATCC HTB-14, epithelial glioblastoma), was obtained from American Type Culture Collection (ATCC). The cells were cultured in Minimum essential medium containing 5% fetal bovine serum (FBS) at 37° C., with 5% CO2 in an incubator.
Female (nu/nu) nude mice aged 6-7 weeks obtained from BioLasco Taiwan (under Charles River Laboratories Licensee) were used. The animals were housed in individually ventilated cages (IVC, 36 Mini Isolator system). The allocation for 5 animals was 27×20×14 in cm. All animals were maintained in a hygienic environment under controlled temperature (20-24° C.) and humidity (30%-70%) with 12-hour light/dark cycle.
Viable U87-MG (ATCC HTB-14) cells were subcutaneously (SC) implanted (5×10^6 cells/mouse in PBS at 0.2 mL/mouse) into the right flank of female nu/nu mice. When group mean tumor volumes reached approximately 129 mm^3 to 131 mm^3, tumor implanted mice were divided into four treatment groups, each group containing eight animals, and dose administrations were initiated (denoted as Day 1).
5-hydroxymethyl-2′-deoxycytidine, 5-formyl-2′-deoxycytidine at 2000 mg/kg and corresponding vehicle (5% DMSO/5% Solutol (RTM)/90% PBS) were administered intraperitoneally (IP) once every three days for a total of five administrations. Temozolomide at 40 mg/kg was administered orally (PO) once daily for five total administrations.
The tumor volume, body weight, mortality, and signs of overt toxicity were monitored and recorded twice weekly for 29 days. Tumor volume (mm^3) was estimated according to the ellipsoid formula as: length×(width)^2×0.5. Tumor growth inhibition (T/C) was calculated by the following formula:
[formula] • Cn: Tumor weight measured on Day n in the control group • Tn: Tumor weight measured on Day n in the treated group • % T/C value≤42% was considered significant antitumor activity (#). Percent tumor growth inhibition (TGI) was also calculated by the following formula:
[formula] • % TGI value≥58% was considered significant antitumor activity (#).
Two-way ANOVA (RTM) followed by Bonferroni test was also used to ascertain the statistically significant difference compared to the negative control group during study; Day 1 through to Day 29. Differences are considered significant at p<0.05 (*).
5-formyl-2′deoxycytidine and 5-hydroxymethyl-2′-deoxycytidine were evaluated in a Glioblastoma Multiforme mouse xenograft model as described above (Materials and Methods). U87-MG cells were injected subcutaneously into the flank of nude mice. Tumours were allowed to form as described above (Materials and Methods). After the tumours reached between 129 mm^3 and 131 mm^3 animals were divided into 4 groups—two treatment groups, a negative control group and a positive control group. The two treatment groups were 5-formyl-2′-deoxycytidine and 5-hydroxymethyl-2′-deoxycytidine. […]
The tumour volume (FIG. 1C), body weight (FIG. 1D), mortality, and signs of overt toxicity were monitored and recorded twice weekly for 29 days. […]

The subject of the next test is G144 cells. Briefly: Survival assay (MTT), G144. Type of test: cell-based, human. Conditions: Homo sapiens, G144, Glioma, Grade IV, 72 hours. Here is the method: as §3, §2
For the next test, the system named is G14 cells. Briefly: Survival assay (MTT), G14. Type of test: cell-based, human. As to conditions: Homo sapiens, G14, Glioma, Grade IV, 72 hours. The protocol:
as §3, §2

For another test, the system named is G166 cells. Briefly: Survival assay (MTT), G166. The class given is cell-based, human. Conditions: Homo sapiens, G166, Glioma, Grade IV, 72 hours. The protocol:
as §3, §2

In the next test the test system is NCI-N87 cells. Kind of test: Survival assay (MTT), NCI-N87. The class given is cell-based, human. Conditions: Homo sapiens. The protocol:
as §1, §2

A further test relates to HaCat cells. Kind of test: Survival assay (MTT), HaCat. The class given is cell-based, human. Conditions: Homo sapiens, Normal, Keratinocytes, 72 hours. Here is the method:
as §1, §2
The present inventors further investigated the extent to which these compounds kill normal human cells; low cytotoxicity against normal human cells is advantageous property for anti-cancer agents. The cytotoxicity of these compounds in various normal human cell lines was therefore investigated (Table 3). Cells were grown and the survival assay was performed as described above (Materials and Methods).

Another test has as its system U2OS cells. Kind of test: Survival assay (MTT), U2OS. The class given is cell-based, human. Conditions: Homo sapiens. The protocol: as §1, §2
The mark [1] stands for this setting: 2000 mg/kg IP every three days, end of study (Day 29).
Where [2] appears, read: NCI-N87, Gastric Carcinoma, 72 hours, MTT.
[3] abbreviates: NCI-N87, Tables 6 and 7, unit inferred.
[4] abbreviates: Bone Osteoscarcoma, 72 hours, MTT.

As usually defined, the IC50 is the concentration that inhibits the measured activity by half. Low values mean greater potency, high ones weaker potency. Regarding `Nc1nc(=O)n([C@H]2C[C@H](O)[C@@H](CO)O2)cc1C=O` [2d5fC, 5-formyl-2′-deoxycytidine], the IC50 is more than 100 µM with DIPG007 cells; 19.2 µM with G7 cells; more than 100 µM with G144 cells; more than 100 µM with G14 cells; more than 100 µM in the test on G166 cells; 806 nM in the test with NCI-N87 cells (setting [2]). In addition, the half-inhibitory concentration (IC50) with NCI-N87 cells (setting [3]) amounted to 806 nM; in the test with HaCat cells, 0.102 µM; in the test with U2OS cells (setting [4]), 8.69 µM; in the test with U2OS cells (Tables 6 and 7, unit inferred), 8.69 µM. Further, the “tumour growth inhibition (TGI)” value with U87-MG (setting [1]) came to 83%. Further, the tumour volume entry in the test on U87-MG (2000 mg/kg IP every three days) was “marked decrease in tumour volume”.

`Nc1nc(=O)n([C@H]2C[C@H](O)[C@@H](CO)O2)cc1CO` [2d5hmC, 5-hydroxymethyl-2′-deoxycytidine]: the IC50 in the test with DIPG007 cells is more than 100 µM; in the test with G7 cells, 11.9 µM; in the test on G144 cells, more than 100 µM; in the test on G14 cells it was 25.4 µM; with G166 cells, more than 100 µM; in the test with NCI-N87 cells (setting [2]) it was more than 25000 nM. Moreover, the IC50 in the test on NCI-N87 cells (setting [3]) is not below 25000 nM; in the test with HaCat cells it was more than 25 µM; in the test with U2OS cells (setting [4]), more than 25 µM; with U2OS cells (Tables 6 and 7, unit inferred), not below 25 µM. The “tumour growth inhibition (TGI)” value in the test on U87-MG (setting [1]) turned out to be 93%. Also, the tumour volume result with U87-MG (2000 mg/kg IP every three days) was “marked decrease in tumour volume”.

On to `Cn1nnc2c(C(N)=O)ncn2c1=O` [Temozolomide, 4-methyl-5-oxo-2,3,4,6,8-pentazabicyclo[4.3.0]nona-2,7,9-triene-9-carboxamide, reference compound], for which the concentration for half-maximal inhibition (IC50) in the test on DIPG007 cells was more than 100 µM; with G7 cells, 6.18 µM; in the test on G144 cells, 14.7 µM; in the test with G14 cells it was 6.02 µM; in the test with G166 cells, more than 100 µM; with NCI-N87 cells (setting [2]), more than 25000 nM. Besides, the IC50 in the test with HaCat cells and with U2OS cells (setting [4]) was more than 25 µM throughout. The “tumour growth inhibition (TGI)” value in the test on U87-MG (positive control, 40 mg/kg PO once daily, end of study) stood at 94%.

The record behind these values is US12605397B2, “Deoxy-cytidine or uridine derivatives for use in cancer therapies” (HEMISPHERIAN AS, priority 2019, dated 2026).
